System: Plasmodium berghei
Test: Luciferase/luciferin-expressing antifolate-resistant parasites were used to infect a culture of HepG2 cells that were pre-incubated with compounds. Infected hepatocytes emit light due to the luciferase reaction. Assay results are presented as the percent inhibition of light emission compared to control. […]
Assay type: functional
Conditions: sporozoite; for IC90: read-out: LUCIFERASE INFECTION ASSAY - IC90

Row | Structure (SMILES) | IC90 [µM] | other results
1 | CNC(=O)NC(=O)COc1ccccc1C#N | > 10 | IC50 (FFLUC_HILL_SLOPE 16.2, FFLUC_R_SQUARED 0.422, read-out: LUCIFERASE INFECTION ASSAY - IC50): > 10 µM
2 | O=C(/C(=N/Nc1ccc(Cl)cc1Cl)C(=O)C(F)(F)F)c1cccs1 | 5.87 | IC50 (FFLUC_HILL_SLOPE 16.5, FFLUC_R_SQUARED 0.242, PBLUC_HILL_SLOPE 1.77, PBLUC_R_SQUARED 0.602, read-out: LUCIFERASE INFECTION ASSAY - IC50): 1.7 µM
3 | Cc1nc(SCC(=O)Nc2nc(Br)sc2Cc2ccc([N+](=O)[O-])cc2)sc1Cc1ccccc1 | > 10 | IC50 (FFLUC_HILL_SLOPE 16.2, FFLUC_R_SQUARED 0.412, read-out: LUCIFERASE INFECTION ASSAY - IC50): > 10 µM
4 | N#Cc1c(SCC(=O)c2ccccc2)nc2c(c1-c1cccs1)CCCC2 | > 8.45 | IC50 (FFLUC_HILL_SLOPE 16.5, FFLUC_R_SQUARED 0.662, PBLUC_HILL_SLOPE 1.37, PBLUC_R_SQUARED 0.669, read-out: LUCIFERASE INFECTION ASSAY - IC50): 3.67 µM
5 | O=C(Nc1cc(Cl)ccc1N1CCOCC1)c1ccccc1NS(=O)(=O)c1ccc(Br)s1 | 1.16 | IC50 (FFLUC_HILL_SLOPE 16.2, FFLUC_R_SQUARED 0.517, HEPG2TOX_HILL_SLOPE 1.46, HEPG2TOX_R_SQUARED 0.905, PBLUC_HILL_SLOPE 14.3, PBLUC_R_SQUARED 0.479, read-out: LUCIFERASE INFECTION ASSAY - IC50): 0.994 µM
6 | CCCNC(=O)c1c(NC(=O)c2ccc(Cl)cc2Cl)nc2ccccn12 | 2.94 | IC50 (FFLUC_HILL_SLOPE 16.3, FFLUC_R_SQUARED 0.135, HEPG2TOX_HILL_SLOPE 2.05, HEPG2TOX_R_SQUARED 0.922, PBLUC_HILL_SLOPE 37.2, PBLUC_R_SQUARED 0.437, read-out: LUCIFERASE INFECTION ASSAY - IC50): 2.77 µM
7 | CCc1ccccc1OCC(=O)Nc1cc(Cl)ccc1N1CCN(C)CC1 | > 10 | IC50 (FFLUC_HILL_SLOPE 16.4, FFLUC_R_SQUARED 0.269, read-out: LUCIFERASE INFECTION ASSAY - IC50): > 10 µM
8 | CC(=C(C#N)C#N)c1ccc(Cl)cc1 | > 16.3 | IC50 (FFLUC_HILL_SLOPE 16.5, FFLUC_R_SQUARED 0.121, read-out: LUCIFERASE INFECTION ASSAY - IC50): > 16.3 µM
9 | Cc1cc(C)cc(C(=O)N(CC2CCCO2)c2nc3ccccc3s2)c1 (centres undefined) | > 10 | IC50 (FFLUC_HILL_SLOPE 16.6, FFLUC_R_SQUARED 0.205, read-out: LUCIFERASE INFECTION ASSAY - IC50): > 10 µM
10 | Cc1ccccc1N1C(=O)c2ccccc2C(Cc2ccc(C#N)cc2)(Cc2ccc(C#N)cc2)C1=O | > 10 | IC50 (FFLUC_HILL_SLOPE 16.6, FFLUC_R_SQUARED 0.0411, PBLUC_HILL_SLOPE 0.772, PBLUC_R_SQUARED 0.177, read-out: LUCIFERASE INFECTION ASSAY - IC50): > 10 µM
11 | C=C(C)C(=O)Oc1cccc(Oc2c(F)c(F)c(-c3c(F)c(F)c(Oc4cccc(OC(=O)C(=C)C)c4)c(F)c3F)c(F)c2F)c1 | > 10 | IC50 (FFLUC_HILL_SLOPE 16.5, FFLUC_R_SQUARED 0.83, read-out: LUCIFERASE INFECTION ASSAY - IC50): > 10 µM
12 | CC(NCC(=O)N1c2ccc(S(N)(=O)=O)cc2CC1C)C1CC2CCC1C2 (centres undefined) | 7.51 | IC50 (FFLUC_HILL_SLOPE 16.6, FFLUC_R_SQUARED 0.154, PBLUC_HILL_SLOPE 1.1, PBLUC_R_SQUARED 0.764, read-out: LUCIFERASE INFECTION ASSAY - IC50): 1.03 µM
13 | Cc1c(C(=O)Nc2ncccc2O)[nH]c2c1C(=O)CCC2 | > 10 | IC50 (FFLUC_HILL_SLOPE 16.5, FFLUC_R_SQUARED 0.153, HEPG2TOX_HILL_SLOPE 5.63, HEPG2TOX_R_SQUARED 0.429, read-out: LUCIFERASE INFECTION ASSAY - IC50): > 10 µM
14 | O=C(CN1CCC(c2c[nH]c3ccccc23)CC1)Nc1ccc(Cl)c([N+](=O)[O-])c1 | 9.15 | IC50 (FFLUC_HILL_SLOPE 16.3, FFLUC_R_SQUARED 0.426, PBLUC_HILL_SLOPE 3.46, PBLUC_R_SQUARED 0.601, read-out: LUCIFERASE INFECTION ASSAY - IC50): 4.85 µM
15 | CCN(CC)S(=O)(=O)c1ccc(OC(C)C)c(NC(=O)c2cc(C3CC3)nc3c2cnn3C(C)C)c1 | > 10 | IC50 (FFLUC_HILL_SLOPE 16.5, FFLUC_R_SQUARED 0.255, read-out: LUCIFERASE INFECTION ASSAY - IC50): > 10 µM
16 | CCC(C)c1ccc(NC(=O)c2ccc[nH]c2=S)cc1 (centres undefined) | > 10 | IC50 (FFLUC_HILL_SLOPE 16.3, FFLUC_R_SQUARED 0.684, PBLUC_HILL_SLOPE 0.824, PBLUC_R_SQUARED 0.804, read-out: LUCIFERASE INFECTION ASSAY - IC50): 7.03 µM

Row | Structure (SMILES) | IC90 [µM] | other results
17 | Cc1ccc(/C=N/n2c(-c3cc(C)c(C)cc3C)cs/c2=N\CC2CCCO2)o1 (centres undefined) | 3.52 | IC50 (FFLUC_HILL_SLOPE 16.3, FFLUC_R_SQUARED 0.0442, HEPG2TOX_HILL_SLOPE 1.44, HEPG2TOX_R_SQUARED 0.874, PBLUC_HILL_SLOPE 40.1, PBLUC_R_SQUARED 0.415, read-out: LUCIFERASE INFECTION ASSAY - IC50): 3.33 µM
18 | Cc1cc(N2CCN(C(=O)c3cc(-c4ccccc4)nc4c3cnn4C(C)C)CC2)nc(C(C)C)n1 | > 10 | IC50 (FFLUC_HILL_SLOPE 16.4, FFLUC_R_SQUARED 0.735, read-out: LUCIFERASE INFECTION ASSAY - IC50): > 10 µM
19 | CCCCCCCc1ccc(C(=O)Nc2ccc(F)c(Cl)c2)cc1 | > 9.49 | IC50 (FFLUC_HILL_SLOPE 16.3, FFLUC_R_SQUARED 0.0372, PBLUC_HILL_SLOPE 1.73, PBLUC_R_SQUARED 0.521, read-out: LUCIFERASE INFECTION ASSAY - IC50): 4.92 µM
20 | FC(F)(F)c1nc2ccccc2nc1-n1nccc1-c1ccc(Cl)cc1 | > 8.81 | IC50 (FFLUC_HILL_SLOPE 16.3, FFLUC_R_SQUARED 0.637, HEPG2TOX_HILL_SLOPE 7.13, HEPG2TOX_R_SQUARED 0.448, PBLUC_HILL_SLOPE 3.24, PBLUC_R_SQUARED 0.732, read-out: LUCIFERASE INFECTION ASSAY - IC50): 5.14 µM
21 | FC(F)(F)Oc1ccc(Nc2n[nH]c(=S)s2)cc1 | 5 | IC50 (FFLUC_HILL_SLOPE 16.2, FFLUC_R_SQUARED 0.24, PBLUC_HILL_SLOPE 2.38, PBLUC_R_SQUARED 0.611, read-out: LUCIFERASE INFECTION ASSAY - IC50): 1.99 µM
22 | CCOC(=O)Cc1nn(Cc2nc(-c3ccc4c(c3)C(C)(C)CCC4(C)C)cs2)c(=O)c2ccccc12 | 2.02 | IC50 (FFLUC_HILL_SLOPE 16.2, FFLUC_R_SQUARED 0.167, PBLUC_HILL_SLOPE 1.27, PBLUC_R_SQUARED 0.666, read-out: LUCIFERASE INFECTION ASSAY - IC50): 0.357 µM
23 | Cc1ccc(S(=O)(=O)N2CCN(C(=O)/C=C/c3ccsc3)CC2)cc1 | > 10 | IC50 (FFLUC_HILL_SLOPE 16.5, FFLUC_R_SQUARED 0.182, read-out: LUCIFERASE INFECTION ASSAY - IC50): > 10 µM
24 | CCCc1cc(=O)n(-c2ccc(Cl)cc2)[nH]1 | 5.8 | IC50 (FFLUC_HILL_SLOPE 16.5, FFLUC_R_SQUARED 0.266, HEPG2TOX_HILL_SLOPE 6.52, HEPG2TOX_R_SQUARED 0.85, PBLUC_HILL_SLOPE 14.3, PBLUC_R_SQUARED 0.712, read-out: LUCIFERASE INFECTION ASSAY - IC50): 4.97 µM
25 | O=C(NNC(=O)c1ccccn1)c1ccc(C2SCCCS2)cc1 | > 10 | IC50 (FFLUC_HILL_SLOPE 16.5, FFLUC_R_SQUARED 0.524, PBLUC_HILL_SLOPE 17.5, PBLUC_R_SQUARED 0.078, read-out: LUCIFERASE INFECTION ASSAY - IC50): 9.07 µM
26 | CC(C)c1cccc(C(C)C)c1NC(=O)COc1ccc(CCO)cc1-n1nc2ccccc2n1 | 6.85 | IC50 (FFLUC_HILL_SLOPE 16.3, FFLUC_R_SQUARED 0.284, PBLUC_HILL_SLOPE 3.54, PBLUC_R_SQUARED 0.756, read-out: LUCIFERASE INFECTION ASSAY - IC50): 3.68 µM
27 | O=C(N/N=C/c1ccccc1C(F)(F)F)c1[nH]c2ccccc2c1-c1ccccc1 | 1.07 | IC50 (FFLUC_HILL_SLOPE 16.3, FFLUC_R_SQUARED 0.334, HEPG2TOX_HILL_SLOPE 1.94, HEPG2TOX_R_SQUARED 0.976, PBLUC_HILL_SLOPE 7.87, PBLUC_R_SQUARED 0.839, read-out: LUCIFERASE INFECTION ASSAY - IC50): 0.813 µM
28 | CC1c2ccsc2CCN1C(=S)NC(=O)c1cccs1 (centres undefined) | > 10.2 | IC50 (FFLUC_HILL_SLOPE 16.3, FFLUC_R_SQUARED 0.288, HEPG2TOX_HILL_SLOPE 6.88, HEPG2TOX_R_SQUARED 0.689, PBLUC_HILL_SLOPE 3.81, PBLUC_R_SQUARED 0.3, read-out: LUCIFERASE INFECTION ASSAY - IC50): 6.21 µM
29 | Cc1nc(Nc2ccc(C(=O)N(C)C)cc2)c2c(-c3ccccc3)csc2n1 | 8.69 | IC50 (FFLUC_HILL_SLOPE 16.2, FFLUC_R_SQUARED 0.398, PBLUC_HILL_SLOPE 15.9, 4.17, PBLUC_R_SQUARED 0.757, 0.868, read-out: LUCIFERASE INFECTION ASSAY - IC50): 7.45 µM
30 | COc1ccc(OCc2cc(C(=O)NCc3ccccc3)c(C)o2)cc1 | > 10 | IC50 (FFLUC_HILL_SLOPE 16.5, FFLUC_R_SQUARED 0.199, HEPG2TOX_HILL_SLOPE 9.38, HEPG2TOX_R_SQUARED 0.316, read-out: LUCIFERASE INFECTION ASSAY - IC50): > 10 µM
31 | Cc1nc2ncnn2c(N2CCc3ccccc3C2)c1Cl | 6.09 | IC50 (FFLUC_HILL_SLOPE 16.4, FFLUC_R_SQUARED 0.0433, HEPG2TOX_HILL_SLOPE 1.21, HEPG2TOX_R_SQUARED 0.855, PBLUC_HILL_SLOPE 2.02, PBLUC_R_SQUARED 0.689, read-out: LUCIFERASE INFECTION ASSAY - IC50): 2.05 µM
32 | COc1ccc(N2C(=O)C=CC2=O)cc1 | > 16.2 | IC50 (FFLUC_HILL_SLOPE 16.4, FFLUC_R_SQUARED 0.242, read-out: LUCIFERASE INFECTION ASSAY - IC50): > 16.2 µM
